Values after ≈ are worked out from the molar mass of the structure shown.
Experiments:
[1] = tested on: P. aeruginosa PAO1; experiment: Intrinsic MIC, P. aeruginosa PAO1; type: cell-based; conditions: Pseudomonas aeruginosa; P. aeruginosa PAO1; substance alone (no antibiotic / no enhancer); read-out: MIC alone, P. a
Procedure: (§1) Antibiotic enhancer concentrations were determined using previously reported protocols.

[2] = tested on: P. aeruginosa ATCC 27853; experiment: Antimicrobial MIC, P. aeruginosa; type: cell-based; conditions: Pseudomonas aeruginosa, ATCC27853, mean (n = 3)
Procedure: (§2) The susceptibility of bacterial strains S. aureus (ATCC 25923), E. coli (ATCC 25922) and P. aeruginosa (ATCC 27853) to antibiotics and compounds was determined using protocols reported previously. Additional antimicrobial evaluation against MRSA (ATCC 43300), Klebsiella pneumoniae (ATCC 700603), Acinetobacter baumannii (ATCC 19606), Candida albicans (ATCC 90028) and Cryptococcus neoformans (ATCC 208821) was undertaken at the Community for Open Antimicrobial Drug Discovery at The University of Queensland (Australia) according to their standard protocols reported previously.

[3] = tested on: C. neoformans ATCC 208821; experiment: Antifungal MIC, C. neoformans (CO-ADD); type: cell-based; conditions: Cryptococcus neoformans, ATCC208821, mean (n = 2)
Procedure: as §2

[4] = tested on: MRSA ATCC 43300; experiment: Antimicrobial MIC, MRSA (CO-ADD); type: cell-based, methicillin-resistant S. aureus; conditions: Staphylococcus aureus; MRSA ATCC 43300; mean (n = 2); read-out: MIC MRSA
Procedure: as §2

[5] = tested on: human red blood cells; experiment: Hemolytic assay; type: cell-based; conditions: mean (n = 2)
Procedure: Hemolysis assays were conducted using the protocols previously reported.

[6] = tested on: S. aureus ATCC 25923; experiment: Antimicrobial MIC, S. aureus; type: cell-based; conditions: Staphylococcus aureus, ATCC25923, mean (n = 3)
Procedure: as §2

[7] = tested on: E. coli ATCC 25922; experiment: Erythromycin enhancement against E. coli; type: cell-based, Escherichia coli; conditions: erythromycin fixed at 10.9 µM (8 µg/mL)
Procedure: as §1

[8] = tested on: C. albicans ATCC 90028; experiment: Antifungal MIC, C. albicans (CO-ADD); type: cell-based; conditions: Candida albicans, ATCC90028, mean (n = 2)
Procedure: as §2

[9] = tested on: P. aeruginosa ATCC 27853; experiment: Doxycycline enhancement against P. aeruginosa; type: cell-based, Pseudomonas aeruginosa; conditions: doxycycline fixed at 4.5 µM
Procedure: as §1
We then evaluated the set of analogues for the ability to enhance the antibiotic activity of doxycycline against P. aeruginosa ATCC 27853 and of erythromycin against E. coli ATCC 25922 (Table 2). In the case of doxycycline, a fixed concentration of the antibiotic of 4.5 μM, which is twenty-fold lower than the intrinsic MIC 90 μM against this organism, was used. Each of the test compounds was then evaluated at a range of concentrations varying from 3.125 to 50–100 μM, with the upper concentration dependent upon the compounds intrinsic MIC towards P. aeruginosa (Table 1). […] While the observation of cytotoxicity/hemolytic properties of 16a–c, 14f and 13f reduces our interest in these analogues, analogues 13b and 13d were identified as non-toxic and strong enhancers of the action of doxycycline towards P. aeruginosa.

[10] = Cytotoxicity assay; type: cell-based, human; conditions: human, HEK293 human embryonic kidney cells, mean (n = 2), read-out: Cytotoxicity (IC50), concentration of compound at 50% cytotoxicity
Procedure: Cytotoxicity assays were conducted using the protocols previously reported.

[11] = tested on: E. coli ATCC 25922; experiment: Antimicrobial MIC, E. coli; type: cell-based, Escherichia coli; conditions: mean (n = 3)
Procedure: as §2

[12] = Escherichia coli, ATCC25922, E. coli ATCC 25922

MIC [1] | Compound | MIC [2] | MIC [3] | MIC [4] | Hemolysis (HC10), concentration of compound at 10% hemolytic activity [5] | MIC [6] | Eryth/E. c: concentration required to restore erythromycin activity [7] | Eryth/E. c: fold change (intrinsic MIC of test compound / combination MIC) [7] | MIC [8] | Dox/P. a: concentration required to restore doxycycline activity [9] | Dox/P. a: fold change (intrinsic MIC of test compound / combination MIC) [9] | IC50 [10] | MIC ([11]; E. coli ATCC 25922) | MIC [11, 12]
144 µM | C[C@H]1c2cccc(O)c2C(=O)C2=C(O)[C@]3(O)C(=O)C(C(N)=O)=C(O)[C@@H](N(C)C)[C@@H]3[C@@H](O)[C@@H]21 [doxycycline, reference compound] | 90 µM (≈ 40 µg/mL) | – | – | – | – | – | – | – | – | – | – | – | –
– | COc1c(Br)cc(/C=C/C(=O)NCCCNCCCCCCCCCCCCNCCCNC(=O)/C=C/c2cc(Br)c(OC)c(Br)c2)cc1Br.O=C(O)C(F)(F)F.O=C(O)C(F)(F)F [Compound 16f, N^1,N^12-Bis(3-((E)-3-(3,5-dibromo-4-methoxyphenyl)acrylamido)propyl)dodecane-1,12-diaminium 2,2,2-trifluoroacetate] | > 170 µM | ≤ 0.21 µM | ≤ 0.21 µM | 0.24 µM | 5.3 µM | 5.30 µM | 1 fold | ≤ 0.21 µM | 42.4 µM | > 4 fold | 1.44 µM | 5.30 µM | 5.3 µM
– | COc1ccc(/C=C/C(=O)NCCCNCCCCCCNCCCNC(=O)/C=C/c2ccc(OC)cc2)cc1.O=C(O)C(F)(F)F.O=C(O)C(F)(F)F [Compound 14b, N^1,N^6-Bis(3-((E)-3-(4-methoxyphenyl)acrylamido)propyl)hexane-1,6-diaminium 2,2,2-trifluoroacetate] | > 257 µM | ≤ 0.32 µM | 41.1 µM | >41.1 µM | 64.2 µM | 256 µM | > 1 fold | > 41.1 µM | 64 µM | > 4 fold | > 41.1 µM | – | > 257 µM
– | COc1ccc(/C=C/C(=O)NCCCNCCCCCCNCCCNC(=O)/C=C/c2ccc(OC)c(Br)c2)cc1Br.O=C(O)C(F)(F)F.O=C(O)C(F)(F)F [Compound 15b, N^1,N^6-Bis(3-((E)-3-(3-bromo-4-methoxyphenyl)acrylamido)propyl)hexane-1,6-diaminium 2,2,2-trifluoroacetate] | > 214 µM | ≤ 0.27 µM | 2.1 µM | 0.99 µM | 6.67 µM | 26.7 µM | 2 fold | > 34.1 µM | 53.4 µM | > 4 fold | > 34.2 µM | – | 53 µM
– | O=C(C=Cc1ccccc1)NCCCNCCCCCCCCCCCCNCCCNC(=O)C=Cc1ccccc1.O=C(O)C(F)(F)F.O=C(O)C(F)(F)F [Compound 13f, N^1,N^12-Bis(3-cinnamamidopropyl)dodecane-1,12-diaminium 2,2,2-trifluoroacetate] | 50 µM | ≤ 0.31 µM | ≤ 0.31 µM | >39.9 µM | 3.12 µM | 3.125 µM | 0.5 fold | > 39.9 µM | 6.25 µM | 8 fold | 19.9 µM | – | 1.56 µM
– | COc1c(Br)cc(/C=C/C(=O)NCCCNCCCCCCNCCCNC(=O)/C=C/c2cc(Br)c(OC)c(Br)c2)cc1Br.O=C(O)C(F)(F)F.O=C(O)C(F)(F)F [Compound 16b, N^1,N^6-Bis(3-((E)-3-(3,5-dibromo-4-methoxyphenyl)acrylamido)propyl)hexane-1,6-diaminium 2,2,2-trifluoroacetate] | > 183 µM | ≤ 0.23 µM | ≤ 0.23 µM | 0.91 µM | 5.71 µM | 11.4 µM | 1 fold | 29.2 µM | – | > 16 fold | 15.6 µM | – | 11.4 µM
– | O=C(C=Cc1ccccc1)NCCCNCCCCCCCCCCNCCCNC(=O)C=Cc1ccccc1.O=C(O)C(F)(F)F.O=C(O)C(F)(F)F [Compound 13e, N^1,N^10-Bis(3-cinnamamidopropyl)decane-1,10-diaminium 2,2,2-trifluoroacetate] | 645 µM | 41.3 µM | 20.6 µM | 37.6 µM | 64.5 µM | 64.5 µM | 10 fold | > 41.3 µM | 645 µM | 1 fold | 24.3 µM | – | 645 µM
– | COc1c(Br)cc(/C=C/C(=O)NCCCNCCCCCCCCNCCCNC(=O)/C=C/c2cc(Br)c(OC)c(Br)c2)cc1Br.O=C(O)C(F)(F)F.O=C(O)C(F)(F)F [Compound 16d, N^1,N^8-Bis(3-((E)-3-(3,5-dibromo-4-methoxyphenyl)acrylamido)propyl)octane-1,8-diaminium 2,2,2-trifluoroacetate] | > 178 µM | ≤ 0.22 µM | ≤ 0.22 µM | ≤0.22 µM | 5.57 µM | 22.3 µM | 0.5 fold | > 28.5 µM | 44.5 µM | > 4 fold | 11 µM | – | 11.1 µM
– | COc1c(Br)cc(/C=C/C(=O)NCCCNCCCCCCCNCCCNC(=O)/C=C/c2cc(Br)c(OC)c(Br)c2)cc1Br.O=C(O)C(F)(F)F.O=C(O)C(F)(F)F [Compound 16c, N^1,N^7-Bis(3-((E)-3-(3,5-dibromo-4-methoxyphenyl)acrylamido)propyl)heptane-1,7-diaminium 2,2,2-trifluoroacetate] | 180 µM | ≤ 0.23 µM | ≤ 0.23 µM | 0.31 µM | 5.64 µM | 22.6 µM | 0.5 fold | > 28.9 µM | – | 16 fold | 22 µM | – | 11.3 µM
– | O=C(C=Cc1ccccc1)NCCCNCCCCCCCNCCCNC(=O)C=Cc1ccccc1.O=C(O)C(F)(F)F.O=C(O)C(F)(F)F [Compound 13c, N^1,N^7-Bis(3-cinnamamidopropyl)heptane-1,7-diaminium 2,2,2-trifluoroacetate] | > 273 µM | > 43.7 µM | > 43.7 µM | >43.7 µM | > 273 µM | 136 µM | > 2 fold | > 43.7 µM | 68 µM | > 4 fold | > 43.7 µM | – | > 273 µM
– | COc1ccc(/C=C/C(=O)NCCCNCCCCCCCCNCCCNC(=O)/C=C/c2ccc(OC)c(Br)c2)cc1Br.O=C(O)C(F)(F)F.O=C(O)C(F)(F)F [Compound 15d, N^1,N^8-Bis(3-((E)-3-(3-bromo-4-methoxyphenyl)acrylamido)propyl)octane-1,8-diaminium 2,2,2-trifluoroacetate] | > 207 µM | ≤ 0.26 µM | ≤ 0.26 µM | 0.52 µM | 6.48 µM | 25.9 µM | 1 fold | 33.2 µM | 51.8 µM | > 4 fold | 19.7 µM | – | 25.9 µM

— PMC10377643, “Exploration of Bis-Cinnamido-Polyamines as Intrinsic Antimicrobial Agents and Antibiotic Enhancers” (Biomolecules, 2023)
